Results reported in patent US20210106612A1, “TARGET GENE TRANSCRIPTIONAL REPRESSION INHIBITOR THAT CAN BE DESIGNED IN A SEQUENCE-SPECIFIC MANNER, COMPOSITION CONTAINING SAME, AND USE THEREOF” (National University Corporation Chiba University, priority 2016, published 2021).

Assays:
[1] = test system: promoter region of the MLH1 gene; test: methylation of promoter region of MLH1 gene in RKO cells, pyrosequencing; type: cell-based
Description: 1.0×10^5 cells of the […] cells were seeded over a 6 cm dish and treated with a medium containing 5.0 μM 5-aza-2'-deoxycytidine (AZA) over 7 days from the next day. The medium was replaced with a fresh medium every 24 hours. The cells were treated with a medium containing 10 nM trichostatin A (TSA) on the 7th day and recovered on the 8th day. […] The cells of the 8th day were cultured under hypoxic conditions of 1% O2 and 5% CO2. The cells were treated with 0.1% DMSO containing 5 μM PIP1 or PIP2, recovered on the 0th day (R0), the 20th day (R20) and the 30th day ([…]), and examined for the degree of methylation in the region from -27 to -1 of the MLH1 gene by pyrosequencing. During the treatment with PIP, the medium containing PIP1 or PIP2 was replaced every 5 days, and the cells were subcultured when becoming confluent.

MLH1 gene = test: expression of mRNA of the MLH1 gene in RKO cells by RT-PCR; type: cell-based
RKO cells [2] = test: genome-wide DNA methylation analysis (Infinium Human Methylation 450 BeadChip) in RKO cells; type: cell-based; settings: for genome-wide methylation level: RKO cells, 0.5 μM AZA, 10 μM Im0 or Im3 under hypoxic conditions, FIG. 8; for genes whose methylation level was reduced by Im0 and Im3 in common, TSS±1 kb region / probes whose methylation level was reduced by Im0 and Im3 in common, TSS±1 kb region / probes whose methylation level was reduced by Im0 and Im3 in common, whole genome: β value <0.65 in Im0-treated and in Im3-treated cells of H75; for genes whose methylation was selectively reduced by this PIP, TSS±1 kb region / probes whose methylation was selectively reduced by this PIP, TSS±1 kb region / probes whose methylation was selectively reduced by this PIP, whole genome: β value <0.65 with this PIP and >0.8 with the other PIP on H75, 10 μM, 75 days, hypoxia after AZA
Description: (§1) The large intestine cancer cell line RKO cells were seeded at a density of 1×10^5 cells over a 6 cm dish and incubated for 24 hours. Subsequently, the culture solution was replaced with a culture solution containing 0.5 μM 5-aza-2′-deoxycytidine (AZA). The cultured cells were exposed to AZA over 2.4 hours. The cells were recovered on the 10th day, or cultured under hypoxic conditions as mentioned below.
(§2) In order to culture the cells under hypoxic conditions, the cells were cultured for 8 days under continuous aeration conditions with humidified air containing 94% N2, 5% CO2 and 1% O2 in an incubator equipped with an O2 sensor and MCO-18M regulator (Sanyo Electric Co., Ltd., Osaka, Japan). The CO2 concentration was maintained by the internal CO2 concentration regulation mechanism. Subsequently, the AZA-treated cells were treated with 0.1% DMSO containing 10 μM Im0 or Im3 for 75 days. During this operation, the medium containing PIP was replaced every 5 days. The cells were subcultured at a density of 2×10^5 cells over a 6 cm dish when becoming confluent. The cells were recovered on the 0th day (H0, before hypoxia treatment) and the 75th day (H75).
Genome-wide DNA methylation analysis was conducted as follows: first, 500 ng of genomic DNA obtained from each sample was treated with bisulfite using Zymo EZ DNA Methylation Kit (Zymo Research Corp., Irvine, Calif., USA). Whole genome amplification, labeling, hybridization and scanning were performed according to manufacturers' manuals.
Methylation analysis was conducted using Infinium Human Methylation 450 BeadChip (Illumina, Inc.) for the whole genome or in a ±1 kb region of the transcription start site (TSS) of each gene. Specifically, the ratio of probes for methylated sequences to the total of the probes for methylated sequences and probes for nonmethylated sequences (in the present specification, referred to as a “β value”) was determined. The β value is 0.00 when no methylation is found in all CpG sites, and is 1.00 when all CpG sites are methylated.
First, genes with β value >0.8 in the negative control RKO cells were selected. Genes with β value <0.5 on HO and β value >0.8 in the presence of treatment with 0.1% DMSO on H75 were further selected from the selected genes.

[3] = test system: FAM-labeled double-stranded oligo DNA of 15 base pairs including a region from −22 to −8 of the MLH1 gene; test: gel shift assay of binding to the target sequence; settings: 1 μM double-stranded oligo DNA, 37° C. for 1 hour, FIG. 2A
Description: PIP1 was confirmed by gel shift assay to bind to the target sequence. FAM-labeled double-stranded oligo DNA of 15 base pairs including a region from −22 to −8 of the MLH1 gene (double-stranded oligo DNA obtained by annealing sequences of SEQ ID NOs: 2 and 3) was prepared (lower part of FIG. 2A). 1 μM double-stranded oligo DNA was mixed at an indicated final concentration with PIP1 or PIP2 dissolved in 10 μL of a reaction solution containing 10 mM Tris-HCl (pH 8.0) and 10% DMSO, followed by incubation at 37° C. for 1 hour. The obtained reaction product was electrophoresed using 20% polyacrylamide gel, and double-stranded DNA on the gel was visualized using LAS-3000 (Fujifilm Corp., Japan).

[4] = test system: region from −27 to −1 of the MLH1 gene; test: in vitro methylation of MLH1 plasmid by CpG methyltransferase M.SssI, pyrosequencing; type: biochemical; settings: varying concentrations of PIP1, M.SssI, FIG. 3C
Description: A region from −780 to +483 (SEQ ID NO: 1) of MLH1 was amplified from the genomic DNA of the RKO cells by PCR using primers of SEQ ID NOs: 6 and 7 to obtain a DNA fragment, which was then integrated into pGEM-T Easy vector (Promega Corp., Fitchburg, USA) according to the manufacturer's manual (see FIG. 3A). 1 μg of the obtained plasmid was incubated at 25° C. for 12 hours in varying concentrations of PIP1 or 40 μM of PIP2 and 1× NEB buffer solution 2 (New England Biolabs Inc., Ipswich, USA) to bind the pyrrole imidazole polyamide to the DNA. For a negative control, DMSO was added to the plasmid and incubated.
[…] of S-adenosylmethionine (New England Biolabs Inc.) and 4 units of CpG methyltransferase M.SssI (New England Biolabs Inc.) were added to each sample, and 5% DMSO was added thereto to adjust the amount to 20 μL. After incubation at 37° C. for 2 hours, the reaction was terminated by incubation at 65° C. for 20 minutes. The DNA was purified by ethanol precipitation and dissolved in 100 μL of 10 mM Tris-HCl (pH 8.0). Then, the degree of DNA methylation at various sites of the MLH1 gene was tested by pyrosequencing. The primers used were as described in the following table.

RKO cells [5] = test: gene expression analysis by RNA deep sequencing (FPKM) in RKO cells; type: cell-based; settings: 10 μM PIP, hypoxia after AZA, FIG. 8 right graphs
Description: as §1, §2
Next, the expression levels of particular genes were analyzed. An RNA library was prepared using TruSeq Stranded mRNA Sample Prep Kit (Illumina, Inc.) according to the manufacturer's manual. Deep sequencing was performed using Illumina HiSeq 1500 or NextSeq 500 platform. FASTQ reads were mapped using TopHat, and transcripts were assembled using Cufflinks. gene expression was expressed as FPKM (fragments per kilobase of exon per million reads mapped). The results were as shown in the right graphs of FIG. 8.

| Compound | degree of methylation in the promoter region from −27 to −1 of the MLH1 gene after demethylation treatment ([1]; RKO cells, 5.0 μM AZA over 7 days, 10 nM TSA on the 7th day, FIG. 4A) | expression of mRNA of the MLH1 gene after demethylation treatment (MLH1 gene; RKO cells, 5.0 μM AZA over 7 days, 10 nM TSA on the 7th day, FIG. 4B) | genome-wide methylation level (RKO cells [2]) | binding to the target double-stranded DNA (band shift) [3] | inhibition of DNA methylation in the region from −27 to −1 of the MLH1 gene [4] | degree of DNA methylation in the region from −27 to −1 of the MLH1 gene on R20 and R30 ([1]; AZA or AZA+TSA pretreated RKO cells, hypoxic conditions 1% O2, 5 μM PIP, FIGS. 6A and 6B) | methylation in a −70 region, a −63 region, a +156 region, and a +171 region of the MLH1 gene ([1]; sites distant from the target site, hypoxic conditions, 5 μM PIP, FIG. 6E) | expression of mRNA of the MLH1 gene, which is reduced along with methylation (MLH1 gene; AZA+TSA-treated cells, hypoxic conditions, 5 μM PIP, FIGS. 6C and 6D) | genes whose methylation level was reduced by Im0 and Im3 in common, TSS±1 kb region (RKO cells [2]) [genes] | probes whose methylation level was reduced by Im0 and Im3 in common, TSS±1 kb region (RKO cells [2]) [probes] | probes whose methylation level was reduced by Im0 and Im3 in common, whole genome (RKO cells [2]) [probes] | genes whose methylation was selectively reduced by this PIP, TSS±1 kb region (RKO cells [2]) [genes] | probes whose methylation was selectively reduced by this PIP, TSS±1 kb region (RKO cells [2]) [probes] | probes whose methylation was selectively reduced by this PIP, whole genome (RKO cells [2]) [probes] | gene expression of NOSTRIN, DSCR9, SLC22A25, OR3A4P and C1WTNF6 (RKO cells [5]) | gene expression of TCP11, LYPDS, STAR, LOC253573 and LOC100507573 (RKO cells [5]) |
| --- | --- | --- | --- | --- | --- | --- | --- | --- | --- | --- | --- | --- | --- | --- | --- | --- |
| Nc1ncn([C@H]2C[C@H](O)[C@@H](CO)O2)c(=O)n1 [AZA, 5-aza-2′-deoxycytidine, reference compound] | reduced | restored | demethylated genome-wide |  |  |  |  |  |  |  |  |  |  |  |  |  |
| CC(=O)Nc1cc(C(=O)Nc2cn(C)c(C(=O)NCCC(=O)Nc3cn(C)c(C(=O)Nc4cn(C)c(C(O)Nc5c[nH]c(C(=O)NCCCC(=O)Nc6cn(C)c(C(=O)Nc7cc(C(=O)NCCC(=O)Nc8cn(C)c(C(=O)Nc9cc(C(=O)Nc%10cc(C(=O)NCCC(=O)NCCCN(C)C)n(C)c%10)n(C)c9)n8)n(C)c7)n6)c5)n4)n3)n2)n(C)c1 (stereo not drawn) [PIP1, Ac-Py-Im-β-Im-Im-Py-γ-Im-Py-β-Im-Py-Py-β-Dp] |  |  |  | confirmed to bind to the target double-stranded DNA | inhibited DNA methylation in a concentration-dependent manner | an increase in the degree of methylation was suppressed | suppress methylation | maintained |  |  |  |  |  |  |  |  |
| Me-Py-Py-Im-Py-β-Dp [Im3] |  |  | methylation levels of genes as a whole were drastically reduced |  |  |  |  |  | 9 | 19 | 19 | 254 | 450 | 1171 | selectively maintained | maintained |
| Me-Py-Py-Py-Py-β-Dp [Im0] |  |  | methylation levels of some genes were drastically reduced |  |  |  |  |  | 9 | 19 | 19 | 1110 | 2135 | 6099 |  | maintained |
